Broadly, the IC50 is the midpoint of a concentration-inhibition curve. By Ki is commonly meant a measure of affinity in units of concentration, obtained from inhibition or displacement.

The target of experiment [1] is Factor XIa (Homo sapiens, UniProt P03951). The experiment in a line: Factor XIa inhibition assay utilizing a fluorophore-quencher pair peptide substrate (FLINT). As to conditions: for IC50: read-out: FXIa IC50; for Ki: read-out: FXIa Ki. The class given is biochemical. The text has this:
Biological Example 1: Factor XIa Inhibition Assay Utilizing a Fluorophore-Quencher Pair Peptide Substrate
A fluorescence intensity (FLINT) based assay was used to monitor inhibition of Factor XIa. The peptide substrate, 5Fam-KLTRAETV-K5Tamra (purchased from New England Peptide) was chosen based on the FXI sequence. Conversion of zymogen FXI to its activated form, FXIa, occurs by proteolytic cleavage by […] at two sites, Arg146 and Arg180. The custom peptide used in this assay was based on the Arg146 cleavage site of FXI. The peptide substrate was designed with a fluorophore-quencher pair, where the fluorescence is quenched until FXIa cleaves the 8-mer peptide after the Arg residue.
The Factor XIa FLINT assay was used with the following 5Fam-KLTRAETV-K5Tamra assay buffer: 50 mM Tris, pH 7.5, 100 mM NaCl, 5 mM CaCl2), 0.1 mg/mL BSA, 0.03% CHAPS. Assay buffer was prepared by mixing all ingredients fresh. 5Fam-KLTRAETV-K5Tamra peptide substrate was first prepared at 10 mM in 100% DMSO, then diluted to 3 mM in 100% DMSO. Assay buffer was then added directly to the 3 mM stock of substrate to prepare the 30 μM 2× working concentration (15 μM final concentration). The 2× Factor XIa stock solution was prepared by diluting 6.562 μM stock in 1× assay buffer for a […].
Test compound(s) were run in an 11-point, 3-fold serial dilution with a final top compound concentration of 100 nM. Final DMSO in assay was 2%. FXIa was preincubated with compound for 30-minutes and then substrate was added to initiate the reaction. The assay was run with kinetic (KIN) reads at 5 min intervals over 30 minutes. The time course was linear using […] FXIa greater than 30 minutes. More specifically, the assay was run as follows: • 100 nL of 0.01 mM test compound was dispensed into black 384-well non-binding Greiner BioOne 784900 plate for 0.1 μM final concentration; • 5 μL of 1× assay buffer was dispensed to column 24 (low control) and 5 μL 2× Factor XIa solution was dispensed to columns 1-23 (column 23 high control); • the plate was centrifuged with a “cover” plate at 500 rpm for 1 min • the plate was pre-incubated for 30 minutes at room temperature with plate covered; • 5 μL of 2×5Fam-KLTRAETV-K5Tamra peptide substrate was dispensed into the entire plate, columns 1-24; • the plate was centrifuged with a “cover” plate at 500 rpm for 1 min; • the plate was read monitoring fluorescence intensity on the BMG PHERAStar at room temperature, using fluorescence module 485 nm/520 nm.
Percent inhibition (IC50) curves were generated per compound tested, and data was analyzed using a 4-parameter logistic fit using GeneData Screener. The relative fluorescence unit (RFU) values were normalized to percent inhibition using the following equation: % inhibition=((HC−LC)−(compound−LC)/(HC−LC))*100
where LC−low control=mean signal of no Factor XIa or 100% inhibition of Factor XIa; HC−high control=mean signal of Factor XIa+5Fam-KLTRAETV-K5Tamra peptide substrate with DMSO only.
An 11-point dose response curve for the test compound(s) was generated using GENDATA to determine IC50 value based on the following equation: Y=Bottom+(Top−Bottom)/(1+10^((log IC50−X)*HillSlope))
where Y is the % inhibition in the presence of X inhibitor concentration, Top=high control=mean signal of Factor XIa+5Fam-KLTRAETV-K5Tamra peptide substrate with DMSO only; Bottom=low control−mean signal of no Factor XIa or 100% inhibition of Factor XIa; HillSlope−Hill coefficient; and IC50=concentration of compound with 50% inhibition in relation to top/high control.
(§1) Representative compounds of formula (I) of the present invention were tested according to the procedure described in Biological Example 1 and Biological Example 2 above, with results as listed in Table 3, below.

Experiment [2] addresses human plasma kallikrein (Homo sapiens, UniProt P03952). The experiment in a line: Kallikrein inhibition assay utilizing a quenched AMC peptide substrate (FLINT). Format: biochemical. As to conditions: 30 min preincubation, 50 μM Z-Gly-Pro-Arg-AMC, 2 nM kallikrein.
Text: Biological Example 2: Kallikrein Inhibition Assay Utilizing a Quenched AMC Peptide Substrate
A fluorescence intensity (FLINT) based assay was used to monitor inhibition of human plasma kallikrein. The peptide substrate, Z-Gly-Pro-Arg-AMC (Purchased from Bachem; Catalog #1-1150) was chosen based on its relatively low KM for kallikrein which enables running the assay at lower substrate concentrations to control background fluorescence.
The Kallikrein FLINT assay was used with the following Z-Gly-Pro-Arg-AMC assay buffer: 50 mM Tris, pH 7.5, 100 mM NaCl, 5 mM CaCl2), 0.1 mg/mL BSA, 0.03% CHAPS. Assay buffer was prepared by mixing all ingredients fresh. 2× Z-Gly-Pro-Arg-AMC peptide substrate was prepared by diluting 10 mM stock into 1× assay buffer for a 100 μM working concentration (50 μM final concentration). The 2× kallikrein stock solution was prepared by diluting 14.76 μM stock in 1× assay buffer for a 4 nM working stock solution (2 nM final concentration).
Test compound(s) were run in an 11-point, 3-fold serial dilution with a final top compound concentration of 1 μM. Final DMSO in assay was 2%. Plasma kallikrein was pre-incubated for 30-minute with compound and then 50 μM substrate was added to initiate the reaction. The assay was run with kinetic (KIN) reads at 5 min intervals over 30 minutes. The time course was linear using 2 nM kallikrein greater than 30 minutes. More specifically, the assay was run as follows: • 100 nL of 0.1 mM test compound was dispensed into black 384-well non-binding Greiner BioOne 784900 plate for 1 μM final concentration; • 5 μL of 1× assay buffer was dispensed to columns 24 (low control) and 5 μL 2× human kallikrein enzyme solution was dispensed to columns 1-23 (column 23 high control); • the plate was centrifuged with a “cover” plate at 500 rpm for 1 min • the plate was pre-incubated for 30 minutes at room temperature with plate covered; • 5 μL of 2× Z-Gly-Pro-Arg-AMC peptide substrate was dispensed into the entire plate, columns 1-24; • the plate was centrifuged with a “cover” plate at 500 rpm for 1 min; the plate was read monitoring fluorescence intensity on the BMG PHERAStar at room temperature, using fluorescence module 340 nm/440 nm.
Percent inhibition (IC50) curves were generated per compound tested, and data was analyzed using a 4-parameter logistic fit using GeneData Screener. The relative fluorescence unit (RFU) values were normalized to percent inhibition using the following equation: % inhibition=((HC−LC)−(compound−LC)/(HC−LC))*100 where LC—low control=mean signal of human kallikrein enzyme or 100% inhibition of human kallikrein enzyme; HC—high control=mean signal of […]+Z-Gly-Pro-Arg-AMC peptide substrate with DMSO only.
An 11-point dose response curve for the test compound(s) was generated using GENDATA to determine IC50 value based on the following equation: Y=Bottom+(Top−Bottom)/(1+10^((log IC50−X)*HillSlope)) • where Y is the % inhibition in the presence of X inhibitor concentration, Top=high control=mean signal of human kallikrein enzyme+Z-Gly-Pro-Arg-AMC peptide substrate with DMSO only; Bottom=low control−mean signal of no human kallikrein enzyme or 100% inhibition of human kallikrein enzyme; HillSlope—Hill coefficient; and IC50=concentration of compound with 50% inhibition in relation to top/high control.
as §1

Setting [3] is: cells that print μM themselves in the nM column, same assay conditions.
The mark [4] stands for this setting: cells that print μM themselves in the nM column.
The mark [5] stands for this setting: 30 min preincubation, 5Fam-KLTRAETV-K5Tamra substrate 15 μM final, kinetic reads.

Read-outs that look alike come from different tables or passages of the source.

human plasma kallikrein, sequence (P03952 391-638 limits assumed): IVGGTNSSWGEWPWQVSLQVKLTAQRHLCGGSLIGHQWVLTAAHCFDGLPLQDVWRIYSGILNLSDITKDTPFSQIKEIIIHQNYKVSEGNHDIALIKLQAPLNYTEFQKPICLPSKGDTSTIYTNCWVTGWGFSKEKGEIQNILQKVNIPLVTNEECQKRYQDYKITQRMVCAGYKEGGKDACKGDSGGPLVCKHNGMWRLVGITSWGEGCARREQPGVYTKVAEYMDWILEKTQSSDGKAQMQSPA
human plasma kallikrein, sequence (P03952 20-390 partner limits assumed): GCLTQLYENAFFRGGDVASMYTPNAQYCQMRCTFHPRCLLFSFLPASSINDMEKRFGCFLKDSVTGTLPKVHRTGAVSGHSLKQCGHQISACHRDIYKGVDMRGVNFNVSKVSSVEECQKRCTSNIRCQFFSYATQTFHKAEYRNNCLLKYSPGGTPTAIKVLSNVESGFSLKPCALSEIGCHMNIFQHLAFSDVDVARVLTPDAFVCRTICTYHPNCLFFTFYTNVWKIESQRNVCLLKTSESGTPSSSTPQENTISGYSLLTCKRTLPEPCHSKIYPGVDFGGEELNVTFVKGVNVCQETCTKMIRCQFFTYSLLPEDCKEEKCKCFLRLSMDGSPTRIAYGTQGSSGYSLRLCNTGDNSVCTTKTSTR
Factor XIa, sequence (P03951 388-625 limits assumed): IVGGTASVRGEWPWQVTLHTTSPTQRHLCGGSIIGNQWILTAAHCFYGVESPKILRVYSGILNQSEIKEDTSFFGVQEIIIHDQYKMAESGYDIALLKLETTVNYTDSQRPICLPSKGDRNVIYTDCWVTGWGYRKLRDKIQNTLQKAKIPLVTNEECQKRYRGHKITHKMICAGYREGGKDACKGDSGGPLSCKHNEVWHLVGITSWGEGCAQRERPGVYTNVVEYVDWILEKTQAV
Factor XIa, sequence (P03951 19-387 partner limits assumed): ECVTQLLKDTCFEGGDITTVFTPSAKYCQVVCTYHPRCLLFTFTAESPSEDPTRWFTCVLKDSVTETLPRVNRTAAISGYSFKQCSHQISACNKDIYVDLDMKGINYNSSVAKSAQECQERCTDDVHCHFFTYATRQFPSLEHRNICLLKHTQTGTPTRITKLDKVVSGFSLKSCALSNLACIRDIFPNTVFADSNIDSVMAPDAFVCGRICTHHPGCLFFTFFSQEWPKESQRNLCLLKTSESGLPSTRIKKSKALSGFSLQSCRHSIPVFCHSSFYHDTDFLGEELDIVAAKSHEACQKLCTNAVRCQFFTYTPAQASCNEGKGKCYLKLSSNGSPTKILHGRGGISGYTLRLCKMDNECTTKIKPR

On to `O=C1NC2(CC2)Cc2ccc(Cl)c(F)c2-c2cc(=O)n3c(c21)CC[C@@H]3c1ncc(-c2ccc3[nH]ccc3c2)[nH]1` (single isomer, unassigned) [Compound 17, (R*)-12-(5-(1H-indol-5-yl)-1H-imidazol-2-yl)-7-chloro-8-fluoro-13,14-dihydro-2H-spiro[benzo[5,6]azocino[4,3-g]indolizine-3,1′-cyclopropane]-1,10(4H,12H)-dione], for which the IC50 in experiment [1] (setting [3]) was 1.59 µM; in experiment [2], above 10000 nM. In addition, in experiment [1], the Ki was 0.796 µM.
Take `CC1(C)Cc2ccc(Cl)c(F)c2-c2cc(=O)n3c(c2C(=O)N1)CC[C@H]3c1ncc(-c2ccc(N)nc2F)[nH]1` (single isomer, unassigned) [Compound 20, (S*)-12-(5-(6-amino-2-fluoropyridin-3-yl)-1H-imidazol-2-yl)-7-chloro-8-fluoro-3,3-dimethyl-3,4,13,14-tetrahydrobenzo[5,6]azocino[4,3-g]indolizine-1,10(2H,12H)-dione]: the Ki in experiment [1] (setting [4]) amounted to 3.83 µM. The IC50 in experiment [1] (setting [3]) was 7.65 µM; in experiment [2], above 10000 nM.
As to `CC1(C)Cc2ccc(Cl)c(F)c2-c2cc(=O)n3c(c2C(=O)N1)CC[C@@H]3c1ncc(-c2ccc(N)nc2F)[nH]1` (single isomer, unassigned) [Compound 21, (R*)-12-(5-(6-amino-2-fluoropyridin-3-yl)-1H-imidazol-2-yl)-7-chloro-8-fluoro-3,3-dimethyl-3,4,13,14-tetrahydrobenzo[5,6]azocino[4,3-g]indolizine-1,10(2H,12H)-dione], the IC50 in experiment [1] (setting [3]) was 1.2 µM; in experiment [2], above 10000 nM. Besides, the Ki in experiment [1] is 0.598 µM.
`CC1(C)Cc2ccc(Cl)c(F)c2-c2cc(=O)n3c(c2C(=O)N1)CC[C@@H]3c1ncc(-c2ccc(N)nc2F)[nH]1` (single isomer, unassigned) [Compound 28, (R*)-12-(5-(6-amino-2-fluoropyridin-3-yl)-1H-imidazol-2-yl)-7-chloro-8-fluoro-3,3-dimethyl-3,4,13,14-tetrahydrobenzo[5,6]azocino[4,3-g]indolizine-1,10(2H,12H)-dione]: the IC50 in experiment [1] (setting [5]) is around 0.783 µM; in experiment [2], above 10000 nM. The Ki in experiment [1] is around 0.392 µM.
For `CC1(C)Cc2ccc(Cl)c(F)c2-c2cc(=O)n3c(c2C(=O)N1)CC[C@H]3c1ncc(-c2ccc(N)nc2F)[nH]1` (single isomer, unassigned) [Compound 29, (S*)-12-(5-(6-amino-2-fluoropyridin-3-yl)-1H-imidazol-2-yl)-7-chloro-8-fluoro-3,3-dimethyl-3,4,13,14-tetrahydrobenzo[5,6]azocino[4,3-g]indolizine-1,10(2H,12H)-dione], the values for the IC50 in experiment [1] (setting [5]) and in experiment [2] were 0.0008 µM and 350 nM, respectively. Moreover, in experiment [1], the Ki came out at 0.0004 µM.
For the compound `Nc1ccc(-c2cnc(C3CCc4c5c(cc(=O)n43)-c3c(ccc(Cl)c3F)-c3ccncc3NC5=O)[nH]2)c(F)n1` (single isomer, unassigned) [Compound 36, (S*)-3-(5-(6-amino-2-fluoropyridin-3-yl)-1H-imidazol-2-yl)-8-chloro-7-fluoro-2,3-dihydrobenzo[5,6]pyrido[4′,3′:7,8]azocino[4,3-g]indolizine-5,16(1H,15H)-dione], the Ki in experiment [1] (setting [4]) is around 2.87 µM. The IC50 in experiment [1] (setting [3]) is around 5.75 µM; in experiment [2], above 10000 nM.
Regarding `Nc1ccc(-c2cnc(C3CCc4c5c(cc(=O)n43)-c3c(ccc(Cl)c3F)-c3ccncc3NC5=O)[nH]2)c(F)n1` (single isomer, unassigned) [Compound 37, (R*)-3-(5-(6-amino-2-fluoropyridin-3-yl)-1H-imidazol-2-yl)-8-chloro-7-fluoro-2,3-dihydrobenzo[5,6]pyrido[4′,3′:7,8]azocino[4,3-g]indolizine-5,16(1H,15H)-dione], the IC50 in experiment [1] (setting [5]) is around 0.078 µM; in experiment [2], 3950 nM. Further, in experiment [1], the Ki was around 0.0391 µM.
In the same order, the values of `Nc1ccc(-c2cnc(C3CCc4c5c(cc(=O)n43)-c3c(ccc(Cl)c3F)-c3ccccc3NC5=O)[nH]2)c(F)n1` (single isomer, unassigned) [Compound 38, (R*)-3-(5-(6-amino-2-fluoropyridin-3-yl)-1H-imidazol-2-yl)-8-chloro-7-fluoro-2,3-dihydrodibenzo[5,6:7,8]azocino[4,3-g]indolizine-5,16(1H,15H)-dione] are 0.0372 µM, 1620 nM and 0.0186 µM.
In the case of `Nc1ccc(-c2cnc(C3CCc4c5c(cc(=O)n43)-c3c(ccc(Cl)c3F)-c3ccccc3NC5=O)[nH]2)c(F)n1` (single isomer, unassigned) [Compound 39, (S*)-3-(5-(6-amino-2-fluoropyridin-3-yl)-1H-imidazol-2-yl)-8-chloro-7-fluoro-2,3-dihydrodibenzo[5,6:7,8]azocino[4,3-g]indolizine-5,16(1H,15H)-dione], in experiment [1] (setting [4]), the Ki was above 5 µM. Moreover, the IC50 in experiment [1] (setting [3]) was above 10 µM; in experiment [2], above 10000 nM.
`Nc1ccc(-c2cnc(C3CCc4c5c(cc(=O)n43)-c3c(ccc(Cl)c3F)CC3(CC3)NC5=O)[nH]2)c(F)n1` (single isomer, unassigned) [Compound 55]: the IC50 is 0.0003 µM in experiment [1] (setting [5]) and 90 nM in experiment [2]. In experiment [1], the Ki came to 0.0001 µM.

Values taken from patent US11897880B2, “7,8-dihydrobenzo[e]pyrido[3,4-c]azocine-2,5(3H,6H)-dione derivatives useful as a factor XIa inhibitors” (Janssen Pharmaceutica NV, priority 2021, dated 2024).
